Starred links: 1 amine or outer side, 2 acyl side, 3 side chain; linkers in the order of their positions; H or OH if unused. Positions of bridges follow the written chain, without caps; N, C: chain ends. Non-standard residues stand in square brackets, D forms with d. Residues, ends and D or L forms follow the SMILES beside them. *: point of attachment. X1 = CC[C@H](C)[C@@H](N[*:1])[C@@H](O)CC(=O)O[C@H](C(=O)[C@H](C)C(=O)[*:2])C(C)C; NMeY = CN[C@@H](Cc1ccc(O)cc1)C(=O)O; dNMeL = CN[C@H](CC(C)C)C(=O)O; Pyruvoyl = CC(=O)C(=O)*
Tests used:
[1] = system: NCI-H-460 human NSCLC xenograft; experiment: Aplidine with temsirolimus, NCI-H-460 xenograft in athymic nude mice (Example 5); type: in vivo; details: for % Inhibition G2: aplidine 0.06 mg/kg/day; for antitumor activity as single agent (monotherapy): temsirolimus 10 and 20 mg/kg/day; for % Inhibition G4: temsirolimus 10 mg/kg/day; for % Inhibition G3: temsirolimus 20 mg/kg/day
Procedure: (§1) Female athymic nude mice (Harlan Sprague Dawley, Madison, Wis.) were utilized for all experiments. Mice were implanted with a cell suspension when mice were 6-8 weeks of age. Animals were housed in ventilated rack caging with food and water ad libitum. The mice were acclimated for at least 5 days prior to tumor implantation.
The tumor model used in this study was NCI-H-460, which is a human NSCLC cell line obtained from the ATCC (Manassas, Va.). NCI-H-460 cells were grown in RPMI-1640 medium, 10% FBS, 10 mM Hepes, 1 mM sodium pyruvate, 4.5 g/l glucose, 1.5 g/l sodium bicarbonate and 2 mM L-glutamine. Cells from in vitro passage 11 were implanted SC into study mice: 5×10^6 cells/mouse in 0.2 ml 50% Matrigel/50% medium without antibiotics or serum, using a 23 G needle and 1 cc syringe.
Tumor measurements were determined as disclosed in Example 1. When tumor growth was within an average size range of 110±25 mg (mean±SD), mice were randomized into the treatment and control groups based on tumor weight by using LabCat® In Life module V 8.0 SP1 tumor tracking and measurement software.
(§2) The treatment of NCI-H-460-tumor-bearing mice was initiated on DPI (Day Post Implantation) 7. Body weights were recorded on treatment days and when tumor sizes were measured. In those days wherein the two drugs were administered the same day, the combination therapy groups were treated by co-administering the two drugs at the same time, with no attempt to sequence the treatments.
(§3) Aplidine was provided in the form of vials of lyophilized aplidine powder which was reconstituted in Cremophor EL/ethanol/water (CEW) 15/15/70 to a concentration of 0.5 mg/ml. The aplidine solution in CEW was diluted in 0.9% Saline to the dosing formulation concentrations, being the final proportion of CEW of 0.18/0.18/0.84.
Temsirolimus was provided in the form of vials containing a non-aqueous, ethanolic, sterile solution of temsirolimus, 25 mg/ml. […] Then, the solution was further diluted in 0.9% Saline to the dosing formulation concentrations.
Tumor size measurements were recorded twice weekly from the treatment initiation until the termination of the study. Tumor growth inhibition was assessed comparing the mean tumor weight between the two agents in combination (aplidine and temsirolimus) against temsirolimus mean tumor weight at the different concentrations assayed.
(§4) Mean, standard deviation and standard error of the mean were determined for tumor volume for all animal groups at all assessments. Student's t test was performed on tumor volumes at each measurement day, including at the end of the study, to determine whether there were any statistically significant differences between combination treatment groups and single monotherapy treatment groups.
(§5) The definition and criteria for the evaluation of potentiation and the degree of additivity for the combination therapy were the same as those disclose in Example 1.

[2] = system: LOX-IMVI human melanoma xenograft; experiment: Aplidine with sorafenib, LOX-IMVI xenograft in athymic nude mice (Example 7); type: in vivo; details: for % Inhibition G2: aplidine 0.06 mg/kg/day; for antitumor activity as single agent (monotherapy): doses tested; for % Inhibition G4: sorafenib 30 mg/kg/day; for % Inhibition G3: sorafenib 60 mg/kg/day
From the text: as §1, with “tumor fragment” for “cell suspension”
The tumor model used in this study was LOX-IMVI, which is a human melanoma cell line obtained from the Department of Developmental Therapeutics, National Cancer Institute (NCI). Animals were implanted subcutaneously (SC) on the right flank, using a 13 gauge trocar, with 2 mm^3 of tissue tumor fragments of LOX-IMVI, from an in vivo transplantable line passage 1, using sterile Earle's Balanced Salt solution as a wetting agent.
Tumor measurements were determined as disclosed in Example 1. When tumor growth was within an average size range of 130±44 mg (mean±SD), mice were randomized into the treatment and control groups based on tumor weight by using LabCat® In Life module V 8.0 SP1 tumor tracking and measurement software.
as §2, with “LOX-IMVI-tumor-bearing” for “NCI-H-460-tumor-bearing”, “11.” for “7.”
as §3
Tumor size measurements were recorded twice weekly from the treatment initiation until the termination of the study.
as §4, §5

[3] = G2: aplidine 0.060 mg/kg/day IP
[4] = G3: temsirolimus 20 mg/kg/day IP
[5] = G4: temsirolimus 10 mg/kg/day IP

CC[C@H](C)[C@H]1NC(=O)[C@@H](NC(=O)[C@@H](CC(C)C)N(C)C(=O)[C@@H]2CCCN2C(=O)C(C)=O)[C@@H](C)OC(=O)[C@H](Cc2ccc(OC)cc2)N(C)C(=O)[C@@H]2CCCN2C(=O)[C@H](CC(C)C)NC(=O)[C@@H](C)C(=O)[C@H](C(C)C)OC(=O)C[C@@H]1O [aplidine, dehydrodidemnin B] (Pyruvoyl-P[dNMeL]T[X1]LP[NMeY](Me); ester 3-C)
% T/C on day 7 [1, 3]: 101.2%
% T/C on day 10 [1, 3]: 95.5%
% T/C on day 13 [1, 3]: 73.2%
% T/C on day 16 [1, 3]: 77.4%
% T/C on day 20 [1, 3]: 88.5%
% T/C on day 23 [1, 3]: 84.3%
% T/C on day 27 [1, 3]: 86.4%
% T/C on day 29 [1, 3]: 96.9%
% T/C on day 31 [1, 3]: 96.0%
% Inhibition G2 ([1]; day 7): −1.2%
% Inhibition G2 ([1]; day 10): 4.5%
% Inhibition G2 ([1]; day 13): 26.8%
% Inhibition G2 ([1]; day 16): 22.6%
% Inhibition G2 ([1]; day 20): 11.5%
% Inhibition G2 ([1]; day 23): 15.7%
% Inhibition G2 ([1]; day 27): 13.6%
% Inhibition G2 ([1]; day 29): 3.1%
% Inhibition G2 ([1]; day 31): 4.0%
antitumor activity as single agent (monotherapy) [1]: inactive
% T/C on day 11 [2, 3]: 102.9%
% T/C on day 14 [2, 3]: 82.9%
% T/C on day 18 [2, 3]: 79.3%
% T/C on day 20 [2, 3]: 98.5%
% T/C on day 22 [2, 3]: 102.0%
% T/C on day 25 [2, 3]: 105.4%
% Inhibition G2 ([2]; day 11): −2.9%
% Inhibition G2 ([2]; day 14): 17.1%
% Inhibition G2 ([2]; day 18): 20.7%
% Inhibition G2 ([2]; day 20): 1.5%
% Inhibition G2 ([2]; day 22): −2.0%
% Inhibition G2 ([2]; day 25): −5.4%
antitumor activity as single agent (monotherapy) [2]: inactive

CNC(=O)c1cc(Oc2ccc(NC(=O)Nc3ccc(Cl)c(C(F)(F)F)c3)cc2)ccn1 [sorafenib]
% T/C on day 11 ([2]; G3: sorafenib 60 mg/kg/day PO): 98.6%
% T/C on day 14 ([2]; G3: sorafenib 60 mg/kg/day PO): 101.2%
% T/C on day 18 ([2]; G3: sorafenib 60 mg/kg/day PO): 77.7%
% T/C on day 20 ([2]; G3: sorafenib 60 mg/kg/day PO): 71.7%
% T/C on day 22 ([2]; G3: sorafenib 60 mg/kg/day PO): 64.8%
% T/C on day 25 ([2]; G3: sorafenib 60 mg/kg/day PO): 73.3%
% T/C on day 14 ([2]; G4: sorafenib 30 mg/kg/day PO): 96.9%
% T/C on day 18 ([2]; G4: sorafenib 30 mg/kg/day PO): 77.4%
% T/C on day 20 ([2]; G4: sorafenib 30 mg/kg/day PO): 75.9%
% T/C on day 22 ([2]; G4: sorafenib 30 mg/kg/day PO): 77.3%
% T/C on day 25 ([2]; G4: sorafenib 30 mg/kg/day PO): 93.4%
antitumor activity as single agent (monotherapy) [2]: inactive
% Inhibition G4 ([2]; day 11): −2.1%
% Inhibition G4 ([2]; day 14): 3.1%
% Inhibition G4 ([2]; day 18): 22.6%
% Inhibition G4 ([2]; day 20): 24.1%
% Inhibition G4 ([2]; day 22): 22.7%
% Inhibition G4 ([2]; day 25): 6.6%
% Inhibition G3 ([2]; day 11): 1.4%
% Inhibition G3 ([2]; day 14): −1.2%
% Inhibition G3 ([2]; day 18): 22.3%
% Inhibition G3 ([2]; day 20): 28.3%
% Inhibition G3 ([2]; day 22): 35.2%
% Inhibition G3 ([2]; day 25): 26.7%

CO[C@H]1C[C@@H]2CC[C@@H](C)[C@@](O)(O2)C(=O)C(=O)N2CCCC[C@H]2C(=O)O[C@H]([C@H](C)C[C@@H]2CC[C@@H](OC(=O)C(C)(CO)CO)[C@H](OC)C2)CC(=O)[C@H](C)/C=C(\C)[C@@H](O)[C@@H](OC)C(=O)[C@H](C)C[C@H](C)/C=C/C=C/C=C/1C [temsirolimus]
% T/C on day 7 [1, 4]: 98.2%
% T/C on day 10 [1, 4]: 41.2%
% T/C on day 13 [1, 4]: 30.5%
% T/C on day 16 [1, 4]: 30.9%
% T/C on day 20 [1, 4]: 26.3%
% T/C on day 23 [1, 4]: 27.4%
% T/C on day 27 [1, 4]: 35.6%
% T/C on day 29 [1, 4]: 48.2%
% T/C on day 31 [1, 4]: 56.8%
% T/C on day 7 [1, 5]: 102.1%
% T/C on day 10 [1, 5]: 49.9%
% T/C on day 13 [1, 5]: 37.1%
% T/C on day 16 [1, 5]: 34.1%
% T/C on day 20 [1, 5]: 30.9%
% T/C on day 23 [1, 5]: 31.4%
% T/C on day 27 [1, 5]: 42.6%
% T/C on day 29 [1, 5]: 57.8%
% T/C on day 31 [1, 5]: 60.3%
% Inhibition G4 ([1]; day 7): −2.1%
% Inhibition G4 ([1]; day 10): 50.1%
% Inhibition G4 ([1]; day 13): 62.9%
% Inhibition G4 ([1]; day 16): 65.9%
% Inhibition G4 ([1]; day 20): 69.1%
% Inhibition G4 ([1]; day 23): 68.6%
% Inhibition G4 ([1]; day 27): 57.4%
% Inhibition G4 ([1]; day 29): 42.2%
% Inhibition G4 ([1]; day 31): 39.7%
% Inhibition G3 ([1]; day 7): 1.8%
% Inhibition G3 ([1]; day 10): 58.8%
% Inhibition G3 ([1]; day 13): 69.5%
% Inhibition G3 ([1]; day 16): 69.1%
% Inhibition G3 ([1]; day 20): 73.7%
% Inhibition G3 ([1]; day 23): 72.6%
% Inhibition G3 ([1]; day 27): 64.4%
% Inhibition G3 ([1]; day 29): 51.8%
% Inhibition G3 ([1]; day 31): 43.2%
antitumor activity as single agent (monotherapy) [1]: meeting the NCI criteria for activity

From US20110009335A1, “Anticancer Treatments” (priority 2008, published 2011)
